Experimental data: patent publication US20260130894A1, “COMPOSITION COMPRISING ISOQUINOLINE DERIVATIVE AS ACTIVE INGREDIENT FOR PREVENTION OR TREATMENT OF PARKINSON'S DISEASE” (ALTMEDICAL CO., LTD., priority 2022, published 2026)

Tests used:
[1] = system: BEAS-2B cell line, in which PINK1 was knocked down; experiment: Mitophagy activity in PINK1 knockdown (shPINK1) BEAS-2B cells (FACS); assay type: cell-based, human
Text: In this example, it was confirmed whether the mitophagy activation function of the isoquinoline derivative according to the present invention is dependent on the PINK1-Parkin pathway. […]
In the following example, it was confirmed whether the novel isoquinoline derivative according to the present invention has a therapeutic effect of preventing or improving Parkinson's disease. Most of all, it was confirmed whether the treatment with the isoquinoline derivative improves mitochondrial dysfunction of a Parkinson's disease cell model. To this end, first, the induction of mitophagy by CD1-012 was verified. […] In addition, to analyze whether the mitophagy-promoting activity of CD1-012 is dependent on PINK1, PINK1 expression was inhibited (using shPNIK1) in BEAS-2B cells, which is a human normal lung cell line expressing a mitochondrial fluorescent protein, and mitophagy activity was analyzed by flow cytometry (FACS).

[2] = system: mitochondria from the substantia nigra of the mice; experiment: Mitochondrial function in substantia nigra of MPTP mouse model (TMRM, ATP production); assay type: in vivo
Experimental: Subsequently, it was confirmed that the compound CD1-012 of the present invention has an effect of improving mitochondrial dysfunction using an animal model of Parkinson's disease. To this end, after separating mitochondria from the substantia nigra of the mice undergoing the behavioral experiment in Example 4, the membrane potential of mitochondria was analyzed through TMRM (100 nM, 37° C., 30 min) fluorescent staining, and the mitochondrial function was analyzed by measuring ATP production (analyzed for 5 mice per group).

[3] = system: mitochondrial membrane potential; experiment: Mitochondrial membrane potential, TMRM assay; assay type: cell-based; details: CD1-012 10 μM or 15 μM, CCCP 10 μM, 24 hours (FIG. 6)
Experimental: It was confirmed whether the isoquinoline derivative according to the present invention induces mitochondrial dysfunction, similar to CCCP. To this end, the CD1-012 (10 μM or 15 μM) and CCCP (10 μM) were treated for 24 hours, and the mitochondrial membrane potential and mitochondrial reactive oxygen species (ROS) levels in each sample were analyzed. Mitochondrial membrane potential was analyzed using the TMRM (tetramethylrhodamine methyl ester) assay, and mitochondrial ROS levels were analyzed using the MitoSOX assay.

BEAS-2B cell line = experiment: Mitophagy activity in BEAS-2B cells expressing mt-Keima (FACS, confocal microscope, mito-YFP); assay type: cell-based, human
Experimental: To analyze the mitophagy-promoting activity effect of the CD1-012 synthesized in the Example 1, the BEAS-2B cell line, which is a human normal lung cell line, was induced to express the mt-Keima fluorescent protein. Following this, the CD1-012 (15 μM) and the compound of Comparative Example 1, CCCP (10 μM), were treated for 24 hours. After the treatment, the mitophagy activity of each sample was measured, and the results were represented in FIGS. 1A to 1C.
Specifically, FIG. 1A represents the analysis results using flow cytometry (FACS) (treatment of CD1-012 at 15 μM for 24 hours), FIG. 1B represents the analysis results using a confocal microscope (treatment of CD1-012 at 15 μM for 18 hours), and FIG. 1C represents the measurement results of the quantitative changes in the mitochondria using a fluorescent protein, mito-YFP, which includes a targeting sequence to transport protein to the mitochondria (treatment of CD1-012 at 20 μM for 24 hours).
It was confirmed whether CD1-012 synthesized in Example 1 promotes mitophagy activity in a concentration- and time-dependent manner. To this end, the CD1-012 was treated at various concentrations or at a fixed concentration (15 μM) for different treatment durations in the BEAS-2B cell line expressing mt-Keima, and mitophagy activity was measured using a flow cytometer.
It was confirmed whether CD1-012 synthesized in Example 1 specifically increases only mitophagy activity. To this end, the BEAS-2B cell line expressing mt-Keima was treated with CD1-012 (15 μM) or Comparative Example 1 (CCCP, 10 μM) for 18 hours, and mitophagy activity was analyzed using a confocal microscope. Additionally, to measure autophagy activity, the BEAS-2B cell line expressing Keima fluorescent protein was incubated in Hanks' balanced salt solution (HBSS) for 3 hours to induce a starvation condition (starv.), and the results were compared with samples treated with CD1-012 (15 μM) for 18 hours using a confocal microscope.
To this end, the human normal lung cell line BEAS-2B, expressing mt-Keima fluorescent protein, was treated with CD1-012, Comparative Example 2 (palmatine), or Comparative Example 3 (berberine) at various concentrations, and the mitophagy-inducing activity of each sample was compared.

SH-SY5Y cell line = experiment: Mitophagy activity in SH-SY5Y cells expressing mt-Keima (FACS); assay type: cell-based, human; details: FACS (FIG. 2A)
Experimental: It was confirmed whether CD1-012 synthesized in Example 1 increases mitophagy activity in various cell lines. To this end, CD1-012 and Comparative Example 1 (CCCP) were treated in the SH-SY5Y cell line, a human neuroblastoma cell line expressing mt-Keima fluorescent protein, and in the HeLa-Parkin cell line, a HeLa cervical cancer cell line expressing Parkin (E3 ligase). Following this treatment, the mitophagy activity of each sample was analyzed using flow cytometry (FACS), and the results are shown in FIGS. 2A to 2B.

## Oc1cc2c(cc1O)-c1cc3ccc(O)c(O)c3c[n+]1CC2 [CD1-012, 2,3,9,10-tetrahydroxy-5,6-dihydroisoquinolino[3,2-a]isoquinolin-7-ium bromide]
[1]; 20 μM, BEAS-2B, FACS (FIG. 8B)
  mitophagy-promoting activity compared with CCCP (10 μM): mitophagy-promoting activity at a level similar to that of CCCP
[1]; 20 μM, shPINK1 BEAS-2B, FACS (FIG. 8B)
  mitophagy-promoting activity when PINK1 gene expression was inhibited: mitophagy-promoting activity was not inhibited
[1]; CCCP 10 μM, CD1-012 15 μM, 18 hours (FIG. 7)
  mitophagy activation in PINK1 knockdown cell line (shPINK1) compared to control cell line (shNT): did not show a significant difference
[2]; MPTP mice coadministered CD1-012 (FIG. 12B)
  ATP synthesis capacity of mitochondria in substantia nigra: restoration
[2]; MPTP mice coadministered CD1-012, TMRM (FIG. 12A)
  membrane potential of mitochondria in substantia nigra: restoration
[3]
  mitochondrial membrane potential: no decrease in mitochondrial membrane potential was observed
BEAS-2B cell line; 15 μM (FIG. 3B)
  treatment time after which mitophagy activity began to significantly increase: 3 h
  treatment time at which mitophagy activity reached its maximum level: 18 h
BEAS-2B cell line; BEAS-2B mt-Keima (FIG. 5)
  concentration at which mitophagy activity reached a level comparable to the maximum of palmatine and berberine: 10 µM
  mitophagy-inducing activity relative to berberine: approximately 8 times
  mitophagy-inducing activity relative to palmatine: approximately 40 times
BEAS-2B cell line; BEAS-2B mt-Keima, flow cytometer (FIG. 3A)
  concentration at which mitophagy activity began to significantly increase compared to untreated control: ≥ 7.5 µM
BEAS-2B cell line; BEAS-2B mt-Keima, 15 μM 24 h (FACS), 15 μM 18 h (confocal), 20 μM 24 h (mito-YFP)
  mitophagy activity compared to the untreated control group (Con): significant increase in mitophagy activity
BEAS-2B cell line; CD1-012 15 μM, CCCP 10 μM, 18 hours (FIG. 4A)
  mitophagy-promoting effect compared with CCCP (confocal microscope): mitophagy-promoting effects similar to those observed in the CCCP-treated sample
BEAS-2B cell line; FACS, CD1-012 15 μM, CCCP 10 μM, 24 hours
  mitophagy activity compared with CCCP-treated sample (FIG. 1A): increased as significantly as that of the sample treated with the representative mitophagy promoting compound, CCCP
BEAS-2B cell line; up to the maximum treatment concentration of 17.5 μM (FIG. 3A)
  concentration dependence of mitophagy activity: continued to increase in a concentration-dependent manner
SH-SY5Y cell line
  mitophagy activity compared to the control group (Con): significantly increased mitophagy activity
